Among the targets are mTOR (Homo sapiens, UniProt P42345); CHEK2 (Homo sapiens, UniProt O96017); MAPK3 (Homo sapiens, UniProt P27361); GSK3A (Homo sapiens, UniProt P49840); PRKCD (Homo sapiens, UniProt Q05655); NTRK1 (Homo sapiens, UniProt P04629).
Common to all, as to assay: biochemical
Another assay addresses T1, PHKG2 (Homo sapiens, UniProt P15735).
T1 sequence (P15735 1-406): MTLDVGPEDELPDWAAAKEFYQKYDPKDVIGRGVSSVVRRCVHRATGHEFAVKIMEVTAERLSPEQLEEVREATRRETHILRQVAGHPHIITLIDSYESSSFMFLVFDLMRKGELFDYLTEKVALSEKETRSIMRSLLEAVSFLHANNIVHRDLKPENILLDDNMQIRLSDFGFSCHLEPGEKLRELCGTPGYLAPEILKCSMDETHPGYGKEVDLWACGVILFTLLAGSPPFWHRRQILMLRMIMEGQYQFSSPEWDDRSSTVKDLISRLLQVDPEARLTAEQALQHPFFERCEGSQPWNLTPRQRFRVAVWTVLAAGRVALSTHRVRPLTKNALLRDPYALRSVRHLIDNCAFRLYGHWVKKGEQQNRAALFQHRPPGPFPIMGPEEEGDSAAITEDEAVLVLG

A further assay concerns the target T2, TTK (Homo sapiens, UniProt P33981).
T2 sequence (P33981 1-857): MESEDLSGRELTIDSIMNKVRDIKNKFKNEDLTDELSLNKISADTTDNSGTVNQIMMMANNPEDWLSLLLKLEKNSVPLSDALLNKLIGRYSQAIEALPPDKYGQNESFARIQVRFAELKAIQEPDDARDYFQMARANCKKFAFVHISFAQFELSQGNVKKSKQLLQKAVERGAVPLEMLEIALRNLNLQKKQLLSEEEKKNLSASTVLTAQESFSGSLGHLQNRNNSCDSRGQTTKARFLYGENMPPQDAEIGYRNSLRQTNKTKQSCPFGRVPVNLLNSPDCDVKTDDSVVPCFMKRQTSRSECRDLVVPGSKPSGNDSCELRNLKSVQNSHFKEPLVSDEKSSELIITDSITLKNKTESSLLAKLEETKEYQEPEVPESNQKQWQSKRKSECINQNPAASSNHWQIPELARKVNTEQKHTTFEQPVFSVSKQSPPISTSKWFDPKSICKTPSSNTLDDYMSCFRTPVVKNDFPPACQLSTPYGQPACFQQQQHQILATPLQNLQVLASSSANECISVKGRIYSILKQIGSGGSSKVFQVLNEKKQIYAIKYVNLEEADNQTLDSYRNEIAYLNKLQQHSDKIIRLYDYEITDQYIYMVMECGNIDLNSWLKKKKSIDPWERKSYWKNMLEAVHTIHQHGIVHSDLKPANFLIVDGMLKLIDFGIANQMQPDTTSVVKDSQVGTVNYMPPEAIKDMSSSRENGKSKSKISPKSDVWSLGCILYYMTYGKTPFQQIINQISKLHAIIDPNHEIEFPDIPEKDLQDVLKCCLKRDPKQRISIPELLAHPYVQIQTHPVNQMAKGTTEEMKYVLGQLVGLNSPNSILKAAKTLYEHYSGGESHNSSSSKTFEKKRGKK

In a further assay the target is T3, PLK4 (Homo sapiens, UniProt O00444).
T3 sequence (O00444 1-970): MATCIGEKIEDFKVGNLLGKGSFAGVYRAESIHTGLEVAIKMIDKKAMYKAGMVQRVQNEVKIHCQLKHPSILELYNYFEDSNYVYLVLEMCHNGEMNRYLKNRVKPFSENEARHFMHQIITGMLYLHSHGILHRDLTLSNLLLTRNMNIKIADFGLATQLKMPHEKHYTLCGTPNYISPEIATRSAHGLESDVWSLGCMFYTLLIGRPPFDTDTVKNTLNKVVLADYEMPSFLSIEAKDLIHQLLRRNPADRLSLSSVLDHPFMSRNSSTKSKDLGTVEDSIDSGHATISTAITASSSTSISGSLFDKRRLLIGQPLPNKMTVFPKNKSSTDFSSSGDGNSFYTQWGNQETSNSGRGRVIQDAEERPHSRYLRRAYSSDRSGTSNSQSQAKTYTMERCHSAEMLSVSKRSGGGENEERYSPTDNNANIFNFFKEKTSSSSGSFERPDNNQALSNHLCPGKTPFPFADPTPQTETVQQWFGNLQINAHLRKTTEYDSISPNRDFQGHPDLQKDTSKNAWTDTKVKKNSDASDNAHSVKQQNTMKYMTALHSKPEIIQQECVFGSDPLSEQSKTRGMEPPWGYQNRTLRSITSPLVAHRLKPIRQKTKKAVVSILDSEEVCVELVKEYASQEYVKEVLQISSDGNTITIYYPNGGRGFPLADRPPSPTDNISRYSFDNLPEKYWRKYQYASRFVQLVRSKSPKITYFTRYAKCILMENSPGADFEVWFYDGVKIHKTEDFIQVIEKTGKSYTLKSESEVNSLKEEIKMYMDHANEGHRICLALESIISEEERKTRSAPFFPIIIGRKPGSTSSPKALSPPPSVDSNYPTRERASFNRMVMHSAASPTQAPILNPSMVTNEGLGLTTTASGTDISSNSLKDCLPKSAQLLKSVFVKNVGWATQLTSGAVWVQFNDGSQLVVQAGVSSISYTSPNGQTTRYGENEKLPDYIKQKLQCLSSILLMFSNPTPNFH

The structures appear in SMILES notation. Values joined by “and” are separate entries in the source; they are usually repeats but may differ in a detail not shown here. Equal entries are not always repeated.

Sequence of NTRK1 (P04629 whole entry): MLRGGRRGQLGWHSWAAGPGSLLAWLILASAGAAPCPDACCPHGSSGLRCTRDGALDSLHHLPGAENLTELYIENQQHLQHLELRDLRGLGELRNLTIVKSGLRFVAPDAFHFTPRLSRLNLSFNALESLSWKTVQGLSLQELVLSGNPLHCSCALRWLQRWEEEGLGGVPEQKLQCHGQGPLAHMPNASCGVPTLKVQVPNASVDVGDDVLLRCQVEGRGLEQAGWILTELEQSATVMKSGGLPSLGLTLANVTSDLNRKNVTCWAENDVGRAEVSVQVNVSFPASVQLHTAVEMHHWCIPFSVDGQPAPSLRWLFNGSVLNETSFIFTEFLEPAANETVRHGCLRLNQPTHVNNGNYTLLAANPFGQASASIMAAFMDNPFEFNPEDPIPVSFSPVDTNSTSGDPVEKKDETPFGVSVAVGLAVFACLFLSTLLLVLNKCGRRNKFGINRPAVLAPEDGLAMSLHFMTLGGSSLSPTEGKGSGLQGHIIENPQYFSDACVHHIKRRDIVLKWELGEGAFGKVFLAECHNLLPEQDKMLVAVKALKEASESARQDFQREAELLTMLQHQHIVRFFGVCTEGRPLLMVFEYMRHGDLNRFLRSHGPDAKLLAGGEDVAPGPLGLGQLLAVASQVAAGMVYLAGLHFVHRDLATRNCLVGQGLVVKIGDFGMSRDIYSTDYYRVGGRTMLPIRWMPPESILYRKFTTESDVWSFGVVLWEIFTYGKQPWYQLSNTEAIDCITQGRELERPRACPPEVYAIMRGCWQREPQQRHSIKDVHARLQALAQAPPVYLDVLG
Sequence of CHEK2 (O96017 whole entry): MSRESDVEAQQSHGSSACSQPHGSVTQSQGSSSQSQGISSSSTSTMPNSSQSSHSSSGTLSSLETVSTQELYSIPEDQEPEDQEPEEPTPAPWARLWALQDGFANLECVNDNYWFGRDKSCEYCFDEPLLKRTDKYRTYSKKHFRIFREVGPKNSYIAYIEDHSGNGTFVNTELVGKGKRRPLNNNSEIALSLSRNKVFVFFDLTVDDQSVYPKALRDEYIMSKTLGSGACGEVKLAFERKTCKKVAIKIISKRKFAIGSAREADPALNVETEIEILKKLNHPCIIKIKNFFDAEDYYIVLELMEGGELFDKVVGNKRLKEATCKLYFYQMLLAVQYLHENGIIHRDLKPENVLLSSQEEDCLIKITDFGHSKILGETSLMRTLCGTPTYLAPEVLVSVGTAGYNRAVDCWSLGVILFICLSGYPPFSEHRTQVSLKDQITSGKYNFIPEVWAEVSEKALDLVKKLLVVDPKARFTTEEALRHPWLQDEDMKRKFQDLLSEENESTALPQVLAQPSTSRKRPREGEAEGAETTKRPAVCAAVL
Sequence of MAPK3 (P27361 whole entry): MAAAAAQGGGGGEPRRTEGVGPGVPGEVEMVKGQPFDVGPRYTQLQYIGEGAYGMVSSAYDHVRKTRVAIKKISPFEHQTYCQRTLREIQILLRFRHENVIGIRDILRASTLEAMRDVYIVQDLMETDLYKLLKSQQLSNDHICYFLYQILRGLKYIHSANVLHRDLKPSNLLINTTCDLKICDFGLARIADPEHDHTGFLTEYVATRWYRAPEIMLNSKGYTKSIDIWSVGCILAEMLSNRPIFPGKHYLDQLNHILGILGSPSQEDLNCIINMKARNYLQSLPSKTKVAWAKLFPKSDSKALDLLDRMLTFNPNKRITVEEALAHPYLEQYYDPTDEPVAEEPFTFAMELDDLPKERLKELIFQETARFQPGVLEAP
Sequence of PRKCD (Q05655 whole entry): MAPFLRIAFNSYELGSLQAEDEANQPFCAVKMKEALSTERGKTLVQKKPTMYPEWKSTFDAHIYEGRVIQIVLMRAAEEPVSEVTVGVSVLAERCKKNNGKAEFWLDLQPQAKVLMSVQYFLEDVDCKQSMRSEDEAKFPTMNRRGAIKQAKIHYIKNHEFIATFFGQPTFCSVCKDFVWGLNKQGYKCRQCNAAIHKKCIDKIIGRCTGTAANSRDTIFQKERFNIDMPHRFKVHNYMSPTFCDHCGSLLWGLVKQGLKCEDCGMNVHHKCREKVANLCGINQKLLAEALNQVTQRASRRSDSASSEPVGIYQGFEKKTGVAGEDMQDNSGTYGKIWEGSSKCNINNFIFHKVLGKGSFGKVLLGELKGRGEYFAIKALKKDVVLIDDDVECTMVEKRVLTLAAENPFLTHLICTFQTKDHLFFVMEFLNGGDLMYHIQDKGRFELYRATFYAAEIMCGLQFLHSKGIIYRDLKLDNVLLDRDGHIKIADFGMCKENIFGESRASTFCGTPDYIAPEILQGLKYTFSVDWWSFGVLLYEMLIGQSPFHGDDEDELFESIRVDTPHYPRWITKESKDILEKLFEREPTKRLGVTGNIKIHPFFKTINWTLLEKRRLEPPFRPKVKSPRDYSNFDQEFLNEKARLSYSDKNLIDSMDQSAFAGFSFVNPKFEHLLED
Sequence of GSK3A (P49840 whole entry): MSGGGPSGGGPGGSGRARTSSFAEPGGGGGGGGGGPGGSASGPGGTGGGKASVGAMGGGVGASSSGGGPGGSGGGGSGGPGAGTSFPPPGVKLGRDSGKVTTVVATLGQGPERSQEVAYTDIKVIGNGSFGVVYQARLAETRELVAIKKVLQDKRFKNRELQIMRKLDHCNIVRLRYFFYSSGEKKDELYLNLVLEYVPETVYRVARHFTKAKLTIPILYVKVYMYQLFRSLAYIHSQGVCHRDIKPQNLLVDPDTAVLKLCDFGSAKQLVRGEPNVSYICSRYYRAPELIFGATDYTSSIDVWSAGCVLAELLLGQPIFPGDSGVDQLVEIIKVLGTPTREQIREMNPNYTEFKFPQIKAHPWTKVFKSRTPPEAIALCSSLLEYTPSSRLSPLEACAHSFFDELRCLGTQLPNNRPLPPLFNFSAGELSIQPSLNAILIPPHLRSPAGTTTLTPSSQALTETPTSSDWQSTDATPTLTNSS

Broadly, the IC50 is the midpoint of a concentration-inhibition curve. A low value points to greater potency in that assay. For `CN1CCN(c2ccc(Nc3ncc(C#N)c(Nc4ccccc4C(N)=O)n3)cc2)CC1.Cl` [TCMDC-134116], the IC50 is over 20000 nM on mTOR; 170 nM against CHEK2; 2800 nM against PHKG2; 540 nM and 440 nM against TTK; over 20000 nM on MAPK3; 1400 nM and 1100 nM at GSK3A. Moreover, the IC50 at PLK4 is 210 nM and 270 nM; against PRKCD, 850 nM; against NTRK1, 2200 nM and 1500 nM.

As for `Cl.NCC1(c2nc(-c3ccc(Cl)c(O)c3)c(-c3ccncc3)[nH]2)CCCCC1` [TCMDC-141154], the IC50 on mTOR, at CHEK2, against PHKG2, at TTK, on MAPK3 and against GSK3A was over 20000 nM each time. Moreover, the IC50 at PLK4 was over 20000 nM; at PRKCD it was 1000 nM; at NTRK1, over 20000 nM.

In the case of `CN(C)CC(O)COc1ccc(Nc2ncc([N+](=O)[O-])c(Nc3ccccc3O)n2)cc1.O=C(O)C(F)(F)F` (stereo not drawn) [TCMDC-141399], the IC50 is over 20000 nM against mTOR; 11000 nM on CHEK2; over 20000 nM at PHKG2; over 20000 nM against TTK; over 20000 nM against MAPK3; 6700 nM and 7400 nM at GSK3A. Besides, the IC50 against PLK4, at PRKCD and on NTRK1 was over 20000 nM throughout.

The values are drawn from paper PMC4774911, “Biochemical Screening of Five Protein Kinases from Plasmodium falciparum against 14,000 Cell-Active Compounds” (PLoS ONE, 2016).
